Assay results reported in PubChem BioAssay (NCI).
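Where inhibition never reached the appropriate level, the endpoint shown equals the highest concentration tested. Otherwise, values were interpolated linearly from a five-concentration, 48-hour dose response in 96-well plates. At the TGI there is no net growth.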

Legend:
Experiment in all cases: NCI tumour cell line growth inhibition, 48 h
RXF 393 renal = tested on: RXF 393 renal
SF-268 CNS = tested on: SF-268 CNS
A549 NSCLC = tested on: A549 NSCLC
OVCAR-8 ovarian = tested on: OVCAR-8 ovarian
OVCAR-4 ovarian = tested on: OVCAR-4 ovarian
HL-60(TB) leukemia = tested on: HL-60(TB) leukemia
SK-MEL-2 melanoma = tested on: SK-MEL-2 melanoma
OVCAR-3 ovarian = tested on: OVCAR-3 ovarian
SK-MEL-28 melanoma = tested on: SK-MEL-28 melanoma
LOX IMVI melanoma = tested on: LOX IMVI melanoma
SK-MEL-5 melanoma = tested on: SK-MEL-5 melanoma
UACC-62 melanoma = tested on: UACC-62 melanoma
SNB-78 CNS = tested on: SNB-78 CNS
NCI-H460 lung = tested on: NCI-H460 lung
A498 renal = tested on: A498 renal
SF-539 CNS = tested on: SF-539 CNS
DMS 273 small cell lung = tested on: DMS 273 small cell lung
DLD-1 colon = tested on: DLD-1 colon
CCRF-CEM leukemia = tested on: CCRF-CEM leukemia
UO-31 renal = tested on: UO-31 renal
HOP-62 NSCLC = tested on: HOP-62 NSCLC
HCC-2998 colon = tested on: HCC-2998 colon
M19-MEL melanoma = tested on: M19-MEL melanoma
DMS 114 small cell lung = tested on: DMS 114 small cell lung
HCT-15 colon = tested on: HCT-15 colon
K-562 leukemia = tested on: K-562 leukemia
EKVX NSCLC = tested on: EKVX NSCLC
HCT-116 colon = tested on: HCT-116 colon
SK-OV-3 ovarian = tested on: SK-OV-3 ovarian
COLO 205 colon = tested on: COLO 205 colon
CAKI-1 renal = tested on: CAKI-1 renal
KM12 colon = tested on: KM12 colon
786-0 renal = tested on: 786-0 renal
RXF-631 renal = tested on: RXF-631 renal
IGROV1 ovarian = tested on: IGROV1 ovarian
SR leukemia = tested on: SR leukemia
NCI-H522 lung = tested on: NCI-H522 lung
SF-295 CNS = tested on: SF-295 CNS
HOP-92 NSCLC = tested on: HOP-92 NSCLC
SW-620 colon = tested on: SW-620 colon
SNB-19 CNS = tested on: SNB-19 CNS
UACC-257 melanoma = tested on: UACC-257 melanoma
SN12C renal = tested on: SN12C renal
SNB-75 CNS = tested on: SNB-75 CNS
RPMI-8226 leukemia = tested on: RPMI-8226 leukemia
TK-10 renal = tested on: TK-10 renal
NCI-H23 lung = tested on: NCI-H23 lung
U251 CNS = tested on: U251 CNS
MOLT-4 leukemia = tested on: MOLT-4 leukemia
M14 melanoma = tested on: M14 melanoma
KM20L2 colon = tested on: KM20L2 colon
MALME-3M melanoma = tested on: MALME-3M melanoma
HT29 colon = tested on: HT29 colon
OVCAR-5 ovarian = tested on: OVCAR-5 ovarian
ACHN renal = tested on: ACHN renal

Compound: c1cc(-c2cn[nH]c2)cc(-c2cn[nH]c2)c1
- TGI (RXF 393 renal): 36.8 µM
- TGI (SF-268 CNS): > 100 µM
- TGI (A549 NSCLC): 69.5 µM
- TGI (OVCAR-8 ovarian): > 100 µM
- TGI (OVCAR-4 ovarian): > 100 µM
- TGI (HL-60(TB) leukemia): 66.6 µM
- TGI (SK-MEL-2 melanoma): > 100 µM
- TGI (OVCAR-3 ovarian): > 100 µM
- TGI (SK-MEL-28 melanoma): > 100 µM
- TGI (LOX IMVI melanoma): > 100 µM
- TGI (SK-MEL-5 melanoma): > 100 µM
- TGI (UACC-62 melanoma): 35.6 µM
- TGI (SNB-78 CNS): > 100 µM
- TGI (NCI-H460 lung): > 100 µM
- TGI (A498 renal): 89.7 µM
- TGI (SF-539 CNS): 55.4 µM
- TGI (DMS 273 small cell lung): > 100 µM
- TGI (DLD-1 colon): > 100 µM
- TGI (CCRF-CEM leukemia): > 100 µM
- TGI (UO-31 renal): 58.4 µM
- TGI (HOP-62 NSCLC): > 100 µM
- TGI (HCC-2998 colon): > 100 µM
- TGI (M19-MEL melanoma): > 100 µM
- TGI (DMS 114 small cell lung): > 100 µM
- TGI (HCT-15 colon): 96.4 µM
- TGI (K-562 leukemia): > 100 µM
- TGI (EKVX NSCLC): 58.6 µM
- TGI (HCT-116 colon): 49.4 µM
- TGI (SK-OV-3 ovarian): 37.5 µM
- TGI (COLO 205 colon): > 100 µM
- TGI (CAKI-1 renal): 83.9 µM
- TGI (KM12 colon): > 100 µM
- TGI (786-0 renal): > 100 µM
- TGI (RXF-631 renal): > 100 µM
- TGI (IGROV1 ovarian): > 100 µM
- TGI (SR leukemia): > 100 µM
- TGI (NCI-H522 lung): > 100 µM
- TGI (SF-295 CNS): > 100 µM
- TGI (HOP-92 NSCLC): > 100 µM
- TGI (SW-620 colon): > 100 µM
- TGI (SNB-19 CNS): > 100 µM
- TGI (UACC-257 melanoma): > 100 µM
- TGI (SN12C renal): > 100 µM
- TGI (SNB-75 CNS): 42.7 µM
- TGI (RPMI-8226 leukemia): > 100 µM
- TGI (TK-10 renal): > 100 µM
- TGI (NCI-H23 lung): > 100 µM
- TGI (U251 CNS): > 100 µM
- TGI (MOLT-4 leukemia): > 100 µM
- TGI (M14 melanoma): > 100 µM
- TGI (KM20L2 colon): > 100 µM

Compound: COC(=O)c1ccccc1NC(=O)C(=O)CC(=O)CC(c1ccccc1)c1c(O)c2ccccc2oc1=O (stereo not drawn)
- TGI (RXF 393 renal): > 100 µM
- TGI (SF-268 CNS): > 100 µM
- TGI (A549 NSCLC): > 100 µM
- TGI (OVCAR-8 ovarian): > 100 µM
- TGI (OVCAR-4 ovarian): > 100 µM
- TGI (HL-60(TB) leukemia): > 100 µM
- TGI (SK-MEL-2 melanoma): > 100 µM
- TGI (MALME-3M melanoma): > 100 µM
- TGI (OVCAR-3 ovarian): > 100 µM
- TGI (SK-MEL-28 melanoma): > 100 µM
- TGI (SK-MEL-5 melanoma): > 100 µM
- TGI (UACC-62 melanoma): > 100 µM
- TGI (NCI-H460 lung): > 100 µM
- TGI (A498 renal): > 100 µM
- TGI (SF-539 CNS): > 100 µM
- TGI (DLD-1 colon): > 100 µM
- TGI (CCRF-CEM leukemia): > 100 µM
- TGI (HT29 colon): > 100 µM
- TGI (UO-31 renal): > 100 µM
- TGI (HOP-62 NSCLC): > 100 µM
- TGI (HCC-2998 colon): > 100 µM
- TGI (M19-MEL melanoma): > 100 µM
- TGI (DMS 114 small cell lung): > 100 µM
- TGI (EKVX NSCLC): > 100 µM
- TGI (HCT-116 colon): > 100 µM
- TGI (SK-OV-3 ovarian): > 100 µM
- TGI (COLO 205 colon): > 100 µM
- TGI (CAKI-1 renal): > 100 µM
- TGI (KM12 colon): > 100 µM
- TGI (786-0 renal): > 100 µM
- TGI (RXF-631 renal): > 100 µM
- TGI (IGROV1 ovarian): > 100 µM
- TGI (SR leukemia): > 100 µM
- TGI (NCI-H522 lung): > 100 µM
- TGI (SF-295 CNS): > 100 µM
- TGI (SW-620 colon): > 100 µM
- TGI (SNB-19 CNS): > 100 µM
- TGI (OVCAR-5 ovarian): > 100 µM
- TGI (UACC-257 melanoma): > 100 µM
- TGI (SN12C renal): > 100 µM
- TGI (RPMI-8226 leukemia): > 100 µM
- TGI (TK-10 renal): > 100 µM
- TGI (ACHN renal): > 100 µM
- TGI (NCI-H23 lung): > 100 µM
- TGI (MOLT-4 leukemia): > 100 µM
- TGI (M14 melanoma): > 100 µM
- TGI (KM20L2 colon): > 100 µM
